Assay results reported in patent publication EP4623928A1, “GLP-1R ANTAGONISTS FOR THE TREATMENT OF CANCER” (Fiorina, Paolo, priority 2024, dated 2025).

Experiments:
CD4^+ and CD8^+ T cells = assay: Cell death and proliferation of CD4+ and CD8+ T cells in splenocytes activated with anti-CD3/anti-CD28 (FACS); type: cell-based, C57BL/6 mice; details: anti-CD3/anti-CD28 activated splenocytes
[1] = tested on: GLP-1R^pos and GLP-1R^neg CD3^+ T cells; assay: Proliferation, apoptosis and IFN-γ expression of GLP-1Rpos and GLP-1Rneg CD3+ T cells stimulated with anti-CD3/anti-CD28; type: cell-based, C57BL/6 mice; details: for proliferation rate: anti-CD3/anti-CD28
Method: FACS analysis was performed with a FACSCelesta (BD Bioscience) on murine splenocytes or on single cells suspension prepared upon collagenase-digestion of grafted organs. We used the following antibodies: APC conjugated Rat anti-mouse CD62L, PE conjugated Rat anti-mouse CD44, PerCp conjugated Rat anti-mouse CD4 or PerCp conjugated Rat anti-mouse CD8, (Biolegend, San Diego, CA, USA), and APC conjugated anti-mouse/human insulin (R&D, Minneapolis, MN - USA). GLP-1R was detected by indirect staining; the primary antibody was purchased from Alomone Lab (Jerusalem, Israel) and variably associated with FITC or APC-conjugated anti-isotype Ab (BD and Biolegend respectively). For intracellular staining, splenocytes were isolated from BL6 mice were incubated with and w/o anti CD3/CD28 used both at 0.5 µg/ml, Exe-4 (0.1nM, 1nM and 10nM) or with Exe-4+Exe-9-39 (0.1nM, 1nM and 10nM). After 24hours incubation, cells were collected, washed and plated in RPMI 10% FBS, then stimulated with 50 ng/ml PMA (Sigma Aldrich), 500 ng/ml ionomycin (Sigma Aldrich) and Golgi Stop as recommended by the manufacturer (BD Biosciences, San Diego, CA, USA) for 4h in a humidified incubator 37°C, 5% CO2. After incubation, cells were collected, washed and stained for surface markers, i.e CD4 BUV737, CD8 BUV395, (BD Biosciences, San Diego, CA, USA) and GLP-1R FITC (Alomone Lab, Jerusalem, Israel). They were further fixed, permeabilized using the BD Cytofix/Cytoperm Kit (BD Biosciences, San Diego, CA, USA), and stained with a mAb against IFN-γ (eBioscience). Finally, CD4^+ GLP-1R^+ IFN-γ^+ and CD8^+ GLP-1R^+ IFN-γ ^+ T cells were assessed by flow cytometry analysis. For the expression of GLP-1R on innate immune cells, the following antibodies were used: CD4 BB700, NK1.1 BV421, CD127 BV605, CD44 PE, GLP-1R FITC/PD1 FITC, Viability Dye BV510 (NKT subset); CD45 BV786, CD3 BB700, NK1.1 BV421, GLP-1R FITC/PD1 FITC, Viability Dye BV510 (NK subset); CD45 BB700, CD11c BV786, CD11b BV421, GLP-1R FITC/PD1 FITC, Viability Dye BV510; CD45 PE-CF594, CD127 BV605, NK1.1 BV421, CD335 BV786, CD49a BV650, CD117 BB700, IL33R PE, IL23R BV711, GLP-1R FITC/PD1 FITC, Viability Dye BV510 (LCs subset). For the determination of the chemokine receptors profile of GLP-1R^+ CD3^+ T cells, the following antibodies were used: GLP-1R FITC, CXCR4 PE, CX3CR1 BV605, CCR2 BV421, CCR5 BV650, CCR7 BV786, CXCR3 BB700, CXCR6 BV711, Viability Dye BV510.

[2] = tested on: GLP-1R^pos and GLP-1R^neg CD3^+ T cells; assay: Transwell migration assay toward SDF-1, GLP-1Rpos and GLP-1Rneg CD3+ T cells; type: cell-based, C57BL/6 mice; details: GLP-1R^neg CD3^+ T cells only, Exe-4 (1 nM), SDF-1 gradient
Method: (§1) Transwell migration assays were performed on GLP-1R^pos and GLP-1R^neg CD3^+ cells or respectively untransduced-mock CD3^+ T cells or pmY-GLP-1R transduced CD3^+ T cells, freshly isolated or activated with anti-CD3/CD28 (0.5 µg /ml each) in the presence or not of Exe-4 (1 nM). Chemotaxis assessments via transwell migration assay were performed using polycarbonate membranes with 5 µm pores (Corning) in accordance with the manufacturer's instructions and as previously published (42). Cells were washed, re-suspended in migration media (RPMI), and added to the upper chamber of the plate, while migration media containing 0 or 50 ng/mL SDF-1 (R&D Systems) was added to the bottom chamber. Treated cells were incubated over night at 37°C to migrate through the polycarbonate membrane into the bottom chamber. Input cell counts were obtained by flow cytometry with a BD FACSCelesta (BD, Biosciences) as well as cell counts of migrated cells in the lower chambers. Migration percentage was calculated as the number of cells in the lower chamber (migrated) compared to total input cell count for three separate wells. Mean migration percentages and standard deviations (SD) were calculated across the different donor cell lots. Analysis of lower chambers without SDF-1 (negative gradients) was used to control for any nonspecific increase in chemotaxis.

CD3^+ T cells = assay: Phosphoproteomic array of CD3+ T cells; type: cell-based, murine; details: Exe-4 (1 nM), 24 hours, vs untreated
Method: Isolated CD3^+ T cells from splenocytes were treated with Exendin-4 (Exe-4) for 24hrs or left untreated. Total soluble proteins from both cell extracts, approximately 7×10^6 cells per conditions were used, all steps were performed using the Phospho Explorer Antibody Array kit (Full Moon Biosystems, PEX100) as recommended by the manufacturer (41). Next, soluble extracted proteins were biotinylated and were next incubated with a mixture of Cy3-streptavidin-detection buffer and the array slides were incubated on a rotating shaker for 30 min at RT. After, several washing steps, the array slides were allowed to dry by centrifugation. Dry array slides were analyzed by a slide-based microarray scanner as recommended by the manufacturer.

[3] = tested on: untransduced-mock and pmY-GLP-1R transduced CD3^+ T cells; assay: Proliferation, apoptosis and IFN-γ expression of untransduced-mock and pmY-GLP-1R transduced CD3+ T cells; type: cell-based, murine; details: Exe-4
Method: The mGLP-1R cDNA construct (Origene) was inserted into the pMY-IRES-GFP plasmid (Cell BioLabs, Inc., San Diego, CA). The Platinum-E Retroviral Packaging cell line was transfected with the pMY-IRES-GFP plasmid expressing GLP-1R using polybrene (Santa Cruz Biotechnology), and supernatant was collected. T cells were activated for 48 hours in the presence of soluble anti-CD3/CD28 at 0.5 µg/ml each in the presence of IL-2 (400 ng/ml) (R&D Systems), and viral supernatant was added. The upregulation of GLP-1R was assessed by FACS and western blot analysis.

[4] = tested on: untransduced-mock and pmY-GLP-1R transduced CD3^+ T cells; assay: Transwell migration assay toward SDF-1, mock and pmY-GLP-1R transduced CD3+ T cells; type: cell-based, murine; details: both untransduced-mock and pmY-GLP-1R transduced CD3^+ T cells, Exe-4 (1 nM)
Method: as §1

[5] = both untransduced-mock and pmY-GLP-1R transduced CD3^+ T cells

Exendin-4 [Exe-4]
cell death of CD4^+ and CD8^+ T cells (CD4^+ and CD8^+ T cells; Exe-4 alone (1 nM)): significant increase | proliferation of CD4^+ and CD8^+ T cells (CD4^+ and CD8^+ T cells; Exe-4 alone): no effect | proliferation rate ([1]; GLP-1R^neg CD3^+ T cells, Exe-4 (1 nM)): but not of GLP-1R^neg CD3^+ T cells | proliferation rate ([1]; GLP-1R^pos CD3^+ T cells, Exe-4 (1 nM)): slightly modulated | IFN-y expression ([1]; GLP-1R^pos and GLP-1R^neg CD3^+ T cells, Exe-4 (1 nM)): no evident effect | apoptosis (GLP-1R^pos more apoptotic than GLP-1R^neg) ([1]; GLP-1R^pos vs GLP-1R^neg CD3^+ T cells, with or without Exe-4): independently of Exe-4 treatment | migratory potential [2]: reduced | expression and activation of signalling molecules (phosphoproteomic arrays) (CD3^+ T cells): altered the expression and the activation of several signalling molecules | IFN-γ expression [3, 5]: without any effect | proliferation [3, 5]: no effect | apoptosis ([3]; pmY-GLP-1R transduced CD3^+ T cells only): significantly increased | migratory ability in response to SDF-1 [4]: reduced
